Entries after “also recorded” stand apart in the source; their conditions may differ. Like-named read-outs stand apart in the source and are kept apart here.
Legend:
[1] = tested on: AFDH
[2] = tested on: AFDH; format: biochemical, Anthracobia melaloma; conditions: for Relative activity (%): None = 100
[3] = tested on: AFDH; remark: listed apart in the source
[4] = substrate 100 μl, 12.79 μmol/ml
[5] = substrate 130 μl, 16.63 μmol/ml
[6] = substrate 160 μl, 20.46 μmol/ml
[7] = substrate 180 μl, 23.02 μmol/ml
[8] = substrate 200 μl, 25.58 μmol/ml
[9] = substrate 230 μl, 29.42 μmol/ml
[10] = substrate 260 μl, 33.25 μmol/ml
[11] = substrate 300 μl, 38.37 μmol/ml
[12] = substrate 400 μl, 51.16 μmol/ml
[13] = substrate 450 μl, 57.56 μmol/ml
[14] = substrate 480 μl, 61.39 μmol/ml
[15] = substrate 100 μl, 24.75 μmol/ml
[16] = substrate 120 μl, 29.69 μmol/ml
[17] = substrate 150 μl, 37.12 μmol/ml
[18] = substrate 170 μl, 42.07 μmol/ml
[19] = substrate 200 μl, 49.49 μmol/ml
[20] = substrate 250 μl, 61.86 μmol/ml
[21] = substrate 300 μl, 74.24 μmol/ml

O=C1CO[C@H](CO)[C@@H](O)[C@@H]1O [AF, 1,5-anhydro-D-fructose]
Km ([1]; read-out: apparent Km (concentration that yielded half of the maximum activity), substrate AF, pH 6.7, 22 °C): 12.6 mM | Activity units ([1]; substrate 5 μl, 0.64 μmol/ml): 39.33 units | OD263 ([1]; substrate 5 μl, 0.64 μmol/ml): 0.059 | Activity units ([1]; substrate 10 μl, 1.28 μmol/ml): 62.67 units | OD263 ([1]; substrate 10 μl, 1.28 μmol/ml): 0.094 | Activity units ([1]; substrate 20 μl, 2.56 μmol/ml): 101.33 units | OD263 ([1]; substrate 20 μl, 2.56 μmol/ml): 0.152 | Activity units ([1]; substrate 30 μl, 3.84 μmol/ml): 182.67 units | OD263 ([1]; substrate 30 μl, 3.84 μmol/ml): 0.274 | Activity units ([1]; substrate 40 μl, 5.12 μmol/ml): 210.67 units | OD263 ([1]; substrate 40 μl, 5.12 μmol/ml): 0.316 | Activity units ([1]; substrate 50 μl, 6.40 μmol/ml): 218.67 units | OD263 ([1]; substrate 50 μl, 6.40 μmol/ml): 0.328 | Activity units ([1]; substrate 60 μl, 0.46 μmol/ml): 256.00 units | OD263 ([1]; substrate 60 μl, 0.46 μmol/ml): 0.384 | Activity units ([1]; substrate 70 μl, 8.95 μmol/ml): 327.33 units | OD263 ([1]; substrate 70 μl, 8.95 μmol/ml): 0.491 | Activity units [1, 4]: 412.00 units | OD263 [1, 4]: 0.618 | Activity units [1, 5]: 456.67 units | OD263 [1, 5]: 0.685 | Activity units [1, 6]: 511.33 units | OD263 [1, 6]: 0.767 | Activity units [1, 7]: 549.33 units | OD263 [1, 7]: 0.824 | Activity units [1, 8]: 561.33 units | OD263 [1, 8]: 0.842 | Activity units [1, 9]: 594.67 units | OD263 [1, 9]: 0.892 | Activity units [1, 10]: 609.33 units | OD263 [1, 10]: 0.914 | Activity units [1, 11]: 646.67 units | OD263 [1, 11]: 0.97 | Activity units [1, 12]: 738.67 units | OD263 [1, 12]: 1.108 | Activity units [1, 13]: 767.33 units | OD263 [1, 13]: 1.151 | Activity units [1, 14]: 772.67 units | OD263 [1, 14]: 1.159 | Vmax ([1]; substrate AF, pH 6.7, 22 °C): 769 units

[Cl-].[Na+] [NaCl]
concentration found to increase the activity with a factor of two [2]: 50 mM | Activity units ([2]; NaCl 0.05 M): 1263.3 units | OD263 ([2]; NaCl 0.05 M): 0.758 | Activity units ([2]; NaCl 0.1 M): 1348.3 units | OD263 ([2]; NaCl 0.1 M): 0.809 | Activity units ([2]; NaCl 0.15 M): 1381.7 units | OD263 ([2]; NaCl 0.15 M): 0.829 | Activity units ([2]; NaCl 0.2 M): 1415.0 units | OD263 ([2]; NaCl 0.2 M): 0.849 | Activity units ([2]; NaCl 0.3 M): 1453.3 units | OD263 ([2]; NaCl 0.3 M): 0.872 | Activity units ([2]; NaCl 0.4 M): 1338.3 units | OD263 ([2]; NaCl 0.4 M): 0.803 | Activity units ([2]; NaCl 0.5 M): 1301.7 units | OD263 ([2]; NaCl 0.5 M): 0.781 | Activity units ([2]; NaCl 0.6 M): 1286.7 units | OD263 ([2]; NaCl 0.6 M): 0.772 | Activity units ([2]; NaCl 0.7 M): 1271.7 units | OD263 ([2]; NaCl 0.7 M): 0.763 | Activity units ([2]; NaCl 0.8 M): 1223.3 units | OD263 ([2]; NaCl 0.8 M): 0.734 | Activity units ([2]; NaCl 0.9 M): 1141.7 units | OD263 ([2]; NaCl 0.9 M): 0.685 | effect on AFDH activity ([2]; listed as Na^+): increased; also recorded: positive effect

O=CC(=O)[C@@H](O)[C@H](O)[C@H](O)CO [D-glucosone]
Km ([3]; read-out: apparent Km (concentration that yielded half of the maximum activity), substrate D-glucosone, pH 6.7, 22 °C): 27.6 mM | Activity units ([3]; substrate 5 μl, 1.24 μmol/ml): 33.33 units | OD265 ([3]; substrate 5 μl, 1.24 μmol/ml): 0.050 | Activity units ([3]; substrate 10 μl, 2.47 μmol/ml): 36.00 units | OD265 ([3]; substrate 10 μl, 2.47 μmol/ml): 0.054 | Activity units ([3]; substrate 20 μl, 4.95 μmol/ml): 57.33 units | OD265 ([3]; substrate 20 μl, 4.95 μmol/ml): 0.086 | Activity units ([3]; substrate 30 μl, 7.42 μmol/ml): 79.30 units | OD265 ([3]; substrate 30 μl, 7.42 μmol/ml): 0.119 | Activity units ([3]; substrate 40 μl, 9.90 μmol/ml): 101.33 units | OD265 ([3]; substrate 40 μl, 9.90 μmol/ml): 0.152 | Activity units ([3]; substrate 50 μl, 12.37 μmol/ml): 114.00 units | OD265 ([3]; substrate 50 μl, 12.37 μmol/ml): 0.171 | Activity units ([3]; substrate 60 μl, 14.85 μmol/ml): 140.67 units | OD265 ([3]; substrate 60 μl, 14.85 μmol/ml): 0.211 | Activity units ([3]; substrate 70 μl, 17.32 μmol/ml): 164.67 units | OD265 ([3]; substrate 70 μl, 17.32 μmol/ml): 0.247 | Activity units ([3]; substrate 80 μl, 19.80 μmol/ml): 180.67 units | OD265 ([3]; substrate 80 μl, 19.80 μmol/ml): 0.271 | Activity units ([3]; substrate 90 μl, 22.27 μmol/ml): 215.30 units | OD265 ([3]; substrate 90 μl, 22.27 μmol/ml): 0.323 | Activity units [3, 15]: 230.67 units | OD265 [3, 15]: 0.346 | Activity units [3, 16]: 262.67 units | OD265 [3, 16]: 0.379 | Activity units [3, 17]: 310.20 units | OD265 [3, 17]: 0.394 | Activity units [3, 18]: 352.62 units | OD265 [3, 18]: 0.529 | Activity units [3, 19]: 394.62 units | OD265 [3, 19]: 0.592 | Activity units [3, 20]: 407.33 units | OD265 [3, 20]: 0.611 | Activity units [3, 21]: 414.67 units | OD265 [3, 21]: 0.622 | Vmax ([3]; substrate D-glucosone, pH 6.7, 22 °C): 416 units

[Cl-].[Cl-].[Zn+2] [ZnCl2]
effect on AFDH activity [2]: inhibited | Activity units ([2]; effector 5 mM): 551.7 units | OD263 ([2]; effector 5 mM): 0.331 | Activity units ([2]; effector 10 mM): 435.0 units | OD263 ([2]; effector 10 mM): 0.261 | Activity units ([2]; effector 15 mM): 315.0 units | OD263 ([2]; effector 15 mM): 0.189 | Activity units ([2]; effector 20 mM): 241.7 units | OD263 ([2]; effector 20 mM): 0.145 | Activity units ([2]; effector 25 mM): 220.0 units | OD263 ([2]; effector 25 mM): 0.132 | Activity units ([2]; effector 30 mM): 201.7 units | OD263 ([2]; effector 30 mM): 0.121 | Activity units ([2]; effector 40 mM): 158.3 units | OD263 ([2]; effector 40 mM): 0.095 | Activity units ([2]; effector 50 mM): 135.0 units | OD263 ([2]; effector 50 mM): 0.081 | Relative activity (%) ([2]; inhibitor 10 mM): 52.52%

O[C@@H](CS)[C@@H](O)CS [DTT]
effect on AFDH activity [2]: inhibited | Relative activity (%) ([2]; inhibitor 10 mM): 57%

[Cl-].[Cl-].[Mg+2] [MgCl2]
concentration found to increase the activity with a factor of two [2]: 25 mM | effect on AFDH activity [2]: increased | Activity units ([2]; effector 5 mM): 1053.3 units | OD263 ([2]; effector 5 mM): 0.632 | Activity units ([2]; effector 10 mM): 1228.3 units | OD263 ([2]; effector 10 mM): 0.737 | Activity units ([2]; effector 15 mM): 1255.0 units | OD263 ([2]; effector 15 mM): 0.753 | Activity units ([2]; effector 20 mM): 1295.0 units | OD263 ([2]; effector 20 mM): 0.777 | Activity units ([2]; effector 25 mM): 1316.7 units | OD263 ([2]; effector 25 mM): 0.790 | Activity units ([2]; effector 30 mM): 1291.7 units | OD263 ([2]; effector 30 mM): 0.775 | Activity units ([2]; effector 40 mM): 1243.3 units | OD263 ([2]; effector 40 mM): 0.746 | Activity units ([2]; effector 50 mM): 1186.7 units | OD263 ([2]; effector 50 mM): 0.712

O=C(O)CN(CCN(CC(=O)O)CC(=O)O)CC(=O)O [EDTA]
effect on AFDH activity [2]: inhibited | Relative activity (%) ([2]; inhibitor 10 mM): 59% | Relative activity (%) ([2]; inhibitor 50 mM): 16%

[Ca+2].[Cl-].[Cl-] [CaCl2]
concentration found to increase the activity with a factor of two [2]: 10 mM | effect on AFDH activity [2]: increased | Activity units ([2]; effector 5 mM): 1245.0 units | OD263 ([2]; effector 5 mM): 0.747 | Activity units ([2]; effector 10 mM): 1442.7 units | OD263 ([2]; effector 10 mM): 0.865 | Activity units ([2]; effector 15 mM): 1455.0 units | OD263 ([2]; effector 15 mM): 0.873 | Activity units ([2]; effector 20 mM): 1531.7 units | OD263 ([2]; effector 20 mM): 0.919 | Activity units ([2]; effector 25 mM): 1561.7 units | OD263 ([2]; effector 25 mM): 0.937 | Activity units ([2]; effector 30 mM): 1601.7 units | OD263 ([2]; effector 30 mM): 0.961 | Activity units ([2]; effector 40 mM): 1473.3 units | OD263 ([2]; effector 40 mM): 0.884 | Activity units ([2]; effector 50 mM): 1466.7 units | OD263 ([2]; effector 50 mM): 0.880

— US20030170829A1 (priority 2001, published 2003)
